Experimental data reported in US20260125374A1, “PI3K-ALPHA INHIBITORS AND METHODS OF MAKING AND USING THE SAME” (Relay Therapeutics, Inc., priority 2021, published 2026).
Marks after values point to notes of the source that are not given here.

Assay: Polymorph screening (equilibration, anti-solvent, slow evaporation, slow cooling, temperature cycling, heating-cooling; XRPD and SFC)
Type: physicochemical
Protocol: This polymorph screening program of compound I-1 free form was performed with two batches of the pure enantiomer. Both batches are crystalline and is assigned as Form A. The polymorphic behaviors of the enantiomer were investigated by equilibration at 25° C. and 50° C., equilibration under a temperature cycle, crystallization from hot saturated solutions by slow cooling, slow evaporation, precipitation by addition of anti-solvent, and DSC heating-cooling cycle experiments. Relative stability of identified polymorphs was investigated by competitive slurry experiments.
(§1) About 50 mg of I-1 Form A was weighed into a 2 mL glass vial and equilibrated in suitable amount of solvents (pretreated by molecular sieves) at 25° C. for 2 weeks with a stirring plate and with protection from light. Obtained suspensions were filtered with 0.45 μm nylon membrane and the solid parts (wet cake) were investigated by XRPD. When differences were observed, additional investigations were performed (e.g. DSC, TGA, ^1H-NMR, SFC).
as §1, with “into” for “into a”, “vials” for “vial”, “50°” for “25°”, “10 days” for “2 weeks”, “investigation was” for “investigations were”
I-1 Form A was dissolved in a good solvent. […] The solvents used were pretreated by molecular sieve. Precipitates were collected by filtration. The solid part (wet cake) was investigated by XRPD. […] When differences were observed, additional investigations were performed (e.g. DSC, TGA, ^1H-NMR, SFC).
Based on approximate solubility results, I-1 Form A was dissolved in suitable amount of solvents (pretreated by molecular sieves). Obtained solutions were filtered by 0.45 μm nylon filter. […] Solid residues were examined for their polymorphic form. When differences were observed, additional investigations were performed (e.g. DSC, TGA, ^1H-NMR, SFC).
Approximate 50 mg of batch I-1 Form A were dissolved in the minimal amount of selected solvents (without pretreatment by molecular sieves) at 50° C. Obtained solutions were filtered by 0.45 μm nylon filter. […] Precipitates were collected by filtration. The solid parts (wet cake) were investigated by XRPD. When differences were observed, additional investigations were performed (e.g. DSC, TGA, ^1H-NMR, SFC). When no precipitation was obtained or only a few solids were obtained, the solutions were placed at 5° C. for crystallization.
About 50 mg of I-1 Form A was equilibrated in different solvents (pretreated by molecular sieves) under a temperature cycle between 5° C. to 50° C. at a heating/cooling rate of 0.2° C./min for 10 cycles and with protection from light. After 10 cycles, precipitates were collected at 5° C. by filtration. The solid parts (wet cake) were investigated by XRPD. When differences were observed, additional investigations were performed (e.g. DSC, TGA, 1H-NMR, SFC).
Polymorphic behavior of I-1 Form A was investigated by two different heating-cooling cycles of DSC. Cycle 1:30° C. to 280° C. at 10° C./min; 280° C. to −20° C. at 20° C./min; reheat to 300° C. at 10° C./min. Cycle 2:30° C. to 280° C. at 10° C./min; 280° C. to-20° C. at 2° C./min; reheat to 300° C. at 10° C./min.

[1] = anti-solvent Acetone / Heptane(2V), added III-1 Form D seeds, stirred for 1 h
[2] = anti-solvent MeOH / Water(0.1V), III-1 Form A seeds, stirred for 2 days
[3] = anti-solvent THF / MTBE(1.5V), added I-1 Form C seeds, stirred for 2 h

In the case of `N#Cc1c(-c2cc(NC(=O)c3cc(F)cc(C(F)(F)F)c3)c3c(c2)C(=O)N[C@H]3c2cc(F)ccc2Cl)ccc2ncnn12` [Compound I-1, (R)-N-(3-(2-chloro-5-fluorophenyl)-6-(5-cyano-[1,2,4]triazolo[1,5-a]pyridin-6-yl)-1-oxoisoindolin-4-yl)-3-fluoro-5-(trifluoromethyl)benzamide], the XRPD [1] is reported as “I-1 Form A”, the “ee %(SFC)” value [1] is reported as “ee %(SFC): 94.9%*” and the “ee %(SFC)” value (anti-solvent MeOH / Water(0.1V), III-1 Form A seeds, stirred for 2 h) is reported as “ee %(SFC): 98.8%*”. The XRPD [2] was “I-1 Form A”, the “ee %(SFC)” value [2] was “ee %(SFC): 99.2%*” and the XRPD [3] was “I-1 Form C”. For the same compound, the “ee %(SFC)” value [3] was “ee %(SFC): 99.5%*”, the XRPD (anti-solvent precipitation at 25° C.: Acetone / Heptane(2V)) was “I-1 Form A” and the XRPD (anti-solvent precipitation at 25° C.: Acetone / MTBE(4V)) was “I-1 Form A”. The XRPD (anti-solvent precipitation at 25° C.: MeOH / MTBE(4V), stirred at 25° C. for 23 days) was “I-1 Form E”, the “Comments (outcome)” value (anti-solvent precipitation at 25° C.: MeOH / Toluene(4V)) was “Clear solution” and the XRPD (anti-solvent precipitation at 25° C.: THF / Heptane(1.5V)) was “I-1 Form C”. The XRPD (anti-solvent precipitation at 25° C.: THF / MTBE(4V)) was “I-1 Form C”, the “ee %(SFC)” value (anti-solvent precipitation: MeOH / MTBE(4V), stirred at 25° C. for 23 days, SFC immediately after preparation) was “ee % (SFC): 2.7%*” and the “ee %(SFC)” value (anti-solvent precipitation: THF / MTBE(4V), SFC immediately after preparation) was “ee % (SFC): 100.0%*”. The “racemization in organic solvents (free form polymorph study)” value (certain organic solvents, including methanol and IPAc) was “easily racemized”, the XRPD (equilibration at 25° C. for 2 weeks in 1,4-Dioxane) was “I-1 Form A” and the XRPD (equilibration at 25° C. for 2 weeks in 2-MeTHF) was “I-1 Form A”. For the same compound, the XRPD (equilibration at 25° C. for 2 weeks in ACN/water(90:10, v/v) a.w. 0.9) was “I-1 + I-2 mixture”, the “ee %(SFC)” value (equilibration at 25° C. for 2 weeks in ACN/water(90:10, v/v), SFC immediately after preparation) was “ee % (SFC): 89.6%*” and the XRPD (equilibration at 25° C. for 2 weeks in Acetone) was “I-1 + I-2 mixture”. The XRPD (equilibration at 25° C. for 2 weeks in Acetone/water(60:40, v/v) a.w. 0.8) was “I-1 + I-2 mixture”, the XRPD (equilibration at 25° C. for 2 weeks in Acetonitrile) was “I-1 Form A” and the XRPD (equilibration at 25° C. for 2 weeks in Benzyl alcohol) was “I-1 Form A”. The XRPD (equilibration at 25° C. for 2 weeks in Dichloromethane) was “I-1 Form A”, the XRPD (equilibration at 25° C. for 2 weeks in Ethanol) was “I-1 Form A” and the XRPD (equilibration at 25° C. for 2 weeks in Ethyl acetate) was “I-1 Form A”. For the same compound, the XRPD (equilibration at 25° C. for 2 weeks in Isopropyl acetate) was “I-1 Form A”, the XRPD (equilibration at 25° C. for 2 weeks in MeOH/water(55:45, v/v) a.w. 0.7) was “I-1 Form A” and the XRPD (equilibration at 25° C. for 2 weeks in Methanol) was “I-1 + I-2 mixture”. The XRPD (equilibration at 25° C. for 2 weeks in Methyl ethyl ketone) was “I-1 Form A”, the XRPD (equilibration at 25° C. for 2 weeks in THF/water(85:15, v/v) a.w. 0.9, target concentration 510 mg/mL) was “III-1 Form B” and the XRPD (equilibration at 25° C. for 2 weeks in Tetrahydrofuran) was “I-1 Form A”. For the same compound, the XRPD (equilibration at 25° C. for 2 weeks in Water) was “I-1 + I-2 mixture”, the XRPD (equilibration at 25° C. for 2 weeks in t-Butyl methyl ether) was “I-1 Form A” and the “XRPD (4 days)” value (equilibration at 25° C. in THF/water(85:15, v/v) a.w. 0.9, added III-1 Form B seeds) was “I-1 + II-1 mixture”. The “ee %(SFC)” value (equilibration at 25° C. in THF/water(85:15, v/v), 4 days, added III-1 Form B seeds) was “ee %(SFC): 93.8%*”, the XRPD (equilibration at 50° C. for 10 days in 1,4-Dioxane) was “I-1 Form B” and the “ee %(SFC)” value (equilibration at 50° C. for 10 days in 1,4-Dioxane, SFC immediately after preparation) was “ee % (SFC): 100.0%*”. For the same compound, the XRPD (equilibration at 50° C. for 10 days in ACN/water(80:20, v/v) a.w. 0.9) was “III-1 Form A”, the “ee %(SFC)” value (equilibration at 50° C. for 10 days in ACN/water(80:20, v/v), SFC immediately after preparation) was “ee % (SFC): 50.7%*” and the XRPD (equilibration at 50° C. for 10 days in Acetone) was “I-1 Form A”. The XRPD (equilibration at 50° C. for 10 days in Acetone/water(60:40, v/v) a.w. 0.8) was “III-1 Form C”, the “ee %(SFC)” value (equilibration at 50° C. for 10 days in Acetone/water(60:40, v/v), SFC immediately after preparation) was “ee % (SFC): 56.9%*” and the XRPD (equilibration at 50° C. for 10 days in Acetonitrile) was “I-1 Form A”. The XRPD (equilibration at 50° C. for 10 days in Anisole) was “I-1 Form A”, the XRPD (equilibration at 50° C. for 10 days in EtOH/water(50:50, v/v) a.w. 0.9) was “III-1 Form A” and the “ee %(SFC)” value (equilibration at 50° C. for 10 days in EtOH/water(50:50, v/v), SFC after preparation for about 12 h) was “ee % (SFC): 75.0%#;”. For the same compound, the “ee %(SFC)” value (equilibration at 50° C. for 10 days in EtOH/water(50:50, v/v), SFC immediately after preparation) was “ee % (SFC): 76.9%*,” and the XRPD (equilibration at 50° C. for 10 days in Ethanol) was “I-1 Form A”.
